# From article PMC3698108, “Structural and bioactive studies of terpenes and cyclopeptides from the Genus Rubia” (Chemistry Central Journal, 2013)
# Assays:
# [1] = system: iNOS; parameters: method as in PMID 12808242; details: cited from earlier work
# [2] = system: RAW 264.7 murine macrophages; details: cited from earlier work
# [3] = system: HL-60 and HCT-116; parameters: method as in PMID 22298232; details: cited from earlier work
# [4] = system: HUVEC and HMEC-1; parameters: method as in PMID 21518338; details: cited from earlier work
# [5] = system: A549, Hela and SMMC-7721; parameters: method as in PMID 21973054; details: data not very satisfactory; cited from earlier work
# [6] = system: Candida albicans; parameters: method as in PMID 21973054; details: turbidimetric method; cited from earlier work
# [7] = system: Staphylococcus aureus; parameters: method as in PMID 21973054; details: turbidimetric method; cited from earlier work
# [8] = system: human colon-cancer cells; parameters: method as in PMID 18790561, PMID 18298868; details: intrinsic mitochondrial pathway; cited from earlier work
# [9] = parameters: method as in PMID 17978478; details: KK-A^y mice; cited from earlier work
# [10] = system: Protein kinase C (PKC); details: cited from earlier work
# [11] = system: pancreatic tumor; parameters: method as in PMID 20367887; details: cited from earlier work
# [12] = system: human immunodeficiency virus (HIV-1) protease; parameters: method as in PMID 8759159; details: cited from earlier work
# [13] = system: Lewis lung carcinoma cells; parameters: method as in PMID 16827808; details: daily intraperitoneal injection, 1.5 or 3 mg/kg/day, cited from earlier work
# [14] = system: corneal angiogenesis; parameters: method as in PMID 16827808; details: cited from earlier work
# [15] = system: BAEC; parameters: method as in PMID 16827808; details: cited from earlier work
# [16] = system: glyoxalase I; details: cited from earlier work
# [17] = system: STAT3; details: cited from earlier work
# [18] = system: four cell lines; details: cited from earlier work
# [19] = system: TRAIL-induced apoptosis; details: cited from earlier work
# [20] = system: Vancomycin-Resistant Enterococci; details: cited from earlier work
# [21] = system: renal aldose reductase; details: cited from earlier work
structure (smiles),measurement,setting,value
"COc1ccc(C[C@H]2C(=O)N[C@@H](C)C(=O)N(C)[C@H]3Cc4ccc(cc4)Oc4cc(ccc4O)C[C@@H](C(=O)N[C@H](C)C(=O)N[C@@H](C)C(=O)N2C)N(C)C3=O)cc1 [Compound 71, RA-V]",effects on iNOS induction,[1],potent effects
same,activity against NO production in LPS,[2],exhibited activity
same,cytotoxic activities against HL-60 and HCT-116,[3],potent cytotoxicities
same,antiangiogenic activity in HUVEC and HMEC-1,[4],possessed the activity
"CC(=O)O[C@@H]1C[C@@H](C(C)C)[C@]2(CO)CC[C@@]3(C)[C@H]4C(=CC[C@]3(C)[C@@H]12)[C@@]1(C)CC[C@H](O)C(C)(C)[C@@H]1C[C@@H]4O [Compound 22, Rubiarbonol G]","inhibition on A549, Hela and SMMC-7721",[5],had inhibition
same,antifungal activity against Candida albicans,[6],exhibited inhibition
same,antibacterial activity against Staphylococcus aureus,[7],exhibited inhibition
same,melting point,,170 to 173 °C
"CC1(C)CC[C@]2(C(=O)O)CC[C@]3(C)C(=CC[C@@H]4[C@@]5(C)C[C@@H](O)[C@H](O)C(C)(C)[C@@H]5CC[C@]43C)[C@@H]2C1 [Compound 9, Maslinic acid]",caspase-dependent apoptosis,[8],induce caspase-dependent apoptosis
same,glucose-lowering and hypoinsulinemic effects,[9],significant glucose-lowering and hypoinsulinemic effects
same,PKC inhibition,[10],acted as a PKC inhibitor
same,effect on anti-tumor activities of TNF-α,[11],potentiate anti-tumor activities of TNF-α
same,pancreatic tumor growth and invasion,[11],inhibit pancreatic tumor growth and invasion
same,inhibition on HIV-1 protease,[12],possess inhibition
"COc1ccc(C[C@H]2C(=O)N[C@@H](C)C(=O)N(C)[C@H]3Cc4ccc(cc4)Oc4cc(ccc4OC)C[C@@H](C(=O)N[C@H](C)C(=O)N[C@@H](C)C(=O)N2C)N(C)C3=O)cc1 [Compound 74, RA-VII]",growth of Lewis lung carcinoma cells inoculated into mice,[13],significantly and dose dependently inhibited
same,toxic effects on animals,[13]; mice,no toxic effects
same,cytotoxic activities against HL-60 and HCT-116,[3],potent cytotoxicities
same,mouse corneal angiogenesis,[14],effects on mouse corneal angiogenesis
same,"antiangiogenic activity on proliferation, migration, stress fiber formation of BAEC",[15],antiangiogenic activity
"C[C@H]1[C@H](C)CC[C@]2(C(=O)O)CC[C@]3(C)C(=CC[C@@H]4[C@@]5(C)CC[C@H](O)C(C)(C)[C@@H]5CC[C@]43C)[C@H]12 [Compound 11, Ursolic acid]",activity of glyoxalase I,[16],enhanced the activity
same,STAT3 activation,[17],novel blocker of STAT3 activation
same,apoptotic effects,[18],markedly apoptotic effects
same,cell adhesion,[18],suppress cell adhesion
same,production of VEGF and ICAM-1,[18],reduce the production of VEGF and ICAM-1
same,TRAIL-induced apoptosis,[19],potentiated TRAIL-induced apoptosis
same,toxicity,[20],low toxicity
same,antimicrobial activities,[20]; weaker than clinical antimicrobial drugs,fairly high antimicrobial activities
same,renal aldose reductase activity,[21],markedly suppressed
same,inhibition on HIV-1 protease,[12],possess inhibition
